Laboratory results from EP4656642A1, “ESTROGEN RECEPTOR PROTEOLYSIS TARGETING CHIMERA COMPOUND AND USE THEREOF” (GAN & LEE PHARM CO., LTD, priority 2023, dated 2024).

Experiments:
Assay type in all cases: cell-based
T-47D cells = assay: Inhibition of cell proliferation in T-47D cells (CCK-8, 6 days); settings: 6 days of treatment
Excerpt: Test Example 2: Inhibitory effect of the PROTAC compounds provided in the present disclosure on cell proliferation in T-47D cells (source ATCC)
The complete medium required for T-47D cells was 1640 ( ATCC, Product number: A10491-01) basal medium containing 10% fetal bovine serum. T-47D cells were inoculated in 96-well plates at a density of 3,000 cells/well, and different concentrations of the PROTAC compounds 1-55 provided in the examples of the present disclosure and a positive control sample ARV-471 (source: Innochem) were prepared to treat cells, and the cells were treated at 37°C in a cell culture incubator with 5% CO2 for 6 days. Cell viability was detected using a CCK-8 kit (Beyotime, Product number: C0040) according to the manufacturer's instructions. […] Table 2 IC50 values for inhibition of the proliferation of T-47D cells by the PROTAC compounds provided by the present disclosure and the positive control sample

ERα [1] = target: T1, ERα (Homo sapiens, UniProt P03372); assay: Degradation of ERα in MCF-7 cells (immunoblotting, 4 h)
T1 sequence (P03372 1-595): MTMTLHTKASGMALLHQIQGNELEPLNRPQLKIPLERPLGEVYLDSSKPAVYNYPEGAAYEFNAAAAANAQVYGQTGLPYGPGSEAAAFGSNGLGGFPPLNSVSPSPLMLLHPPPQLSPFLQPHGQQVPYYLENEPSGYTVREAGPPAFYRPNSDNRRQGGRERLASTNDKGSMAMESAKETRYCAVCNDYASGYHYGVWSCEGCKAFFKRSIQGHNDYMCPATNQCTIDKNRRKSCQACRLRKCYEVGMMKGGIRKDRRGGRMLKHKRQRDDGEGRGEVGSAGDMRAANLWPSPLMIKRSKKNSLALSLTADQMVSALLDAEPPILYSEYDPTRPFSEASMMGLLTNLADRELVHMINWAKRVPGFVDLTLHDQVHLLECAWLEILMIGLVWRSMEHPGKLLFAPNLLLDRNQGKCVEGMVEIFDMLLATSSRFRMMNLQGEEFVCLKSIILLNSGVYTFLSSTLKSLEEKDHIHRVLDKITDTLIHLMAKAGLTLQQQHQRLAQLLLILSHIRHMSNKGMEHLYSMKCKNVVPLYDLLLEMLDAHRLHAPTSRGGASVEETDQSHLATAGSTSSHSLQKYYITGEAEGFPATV
Procedure, shortened: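 Degradation rate reflects ERα band intensity, corrected to an internal reference protein, relative to control. Values come from Western blotting of lysates from MCF-7 cells exposed 4 h at 37°C to compounds at final concentrations of 0.15-1000nM.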

MCF-7 cells = assay: Inhibition of cell proliferation of MCF-7 cells (CCK-8, 9 days)
Procedure, shortened: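 Read-out was CCK-8 viability after 9-day continuous exposure (37°C, 5% CO2) of MCF-7 cells plated at 800/well in 10% FBS DMEM across several compound concentrations. Values are proliferation IC50s.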

ERα [2] = target: T1, ERα; assay: Degradation of ERα in T-47D cells (immunoblotting, 4 h); set-up: host or cells: T-47D
Procedure, shortened: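 ERα protein levels were assessed by immunoblot of RIPA lysates (with protease inhibitor) after 4 h exposure at 37°C. Compound was added in DMSO to T-47D cells at final concentrations of 0.15-1000 nM.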

[3] = 9 days of treatment, CCK-8, Table 5
[4] = treated for 9 days, CCK-8 kit (Table 6)

Compound	IC50 (T-47D cells; Table 2)	Degradation rate (%) of ERα in MCF-7 cells (ERα [1]; 10nM compound)	IC50 (MCF-7 cells; [3])	Degradation rate (%) of ERα in T-47D cells (ERα [2]; 10nM compound)	Degradation rate (%) of ERα in MCF-7 cells (ERα [1]; 1nM compound)	Degradation rate (%) of ERα in T-47D cells (ERα [2]; 1nM compound)	IC50 (T-47D cells; Table 3)	IC50 (MCF-7 cells; [4])
O=C1CCC(N2C(=O)c3cc4c(cc3C2=O)C2(CCN(C3CCC5(CC3)CCN(c3ccc(C6c7ccc(O)cc7CCC6c6ccccc6)cc3)CC5)CC2)CO4)C(=O)N1 (centres unmarked) [A18]	68 nM	20%	170 nM	14%	–	–	–	–
O=C1CCC(N2C(=O)c3cc4c(cc3C2=O)C2(CCN(C3CC5(CCN(c6ccc(C7c8ccc(O)cc8CCC7c7ccccc7)cc6)CC5)C3)CC2)CO4)C(=O)N1 (centres unmarked) [A19]	20 nM	18%	–	18%	–	–	–	–
O=C1CCC(N2Cc3cc4c(cc3C2=O)OC2(CC4)CCN(C3CCC4(CC3)CN(c3ccc(C5c6ccc(O)cc6CCC5c5ccccc5)cc3)C4)CC2)C(=O)N1 (centres unmarked) [A23]	9 nM	14%	10 nM	53%	–	–	–	–
O=C1CCC(N2Cc3cc4c(cc3C2=O)CCC2(CN(C3CCC5(CC3)CCN(c3ccc([C@@H]6c7ccc(O)cc7CC[C@@H]6c6ccccc6)cc3)CC5)C2)O4)C(=O)N1 (some centres unmarked) [A33]	9.2 nM	26%	30 nM	56%	-7%	12%	–	–
O=C1CCC(N2C(=O)c3cc4c(cc3C2=O)C2(CCN(C3CC5(CCN(c6ccc([C@@H]7c8ccc(O)cc8CC[C@@H]7c7ccccc7)cc6)CC5)C3)CC2)CO4)C(=O)N1 (some centres unmarked) [A34]	–	13%	–	28%	4%	5%	68 nM	174 nM
O=C1CCC(N2C(=O)c3cc4c(cc3C2=O)C2(CCN(CC3CCC5(CC3)CCN(c3ccc([C@@H]6c7ccc(O)cc7CC[C@@H]6c6ccccc6)cc3)CC5)CC2)CO4)C(=O)N1 (some centres unmarked) [A36]	–	-14%	–	-23%	11%	2%	21 nM	270 nM
O=C1CCC(N2Cc3cc4c(cc3C2=O)OC2(CC4)CN(CC3CCC4(CC3)CCN(c3ccc([C@@H]5c6ccc(O)cc6CC[C@@H]5c5ccccc5)cc3)CC4)C2)C(=O)N1 (some centres unmarked) [A37]	–	8%	–	35%	-12%	15%	7 nM	37 nM
O=C1CCC(N2Cc3cc4c(cc3C2=O)OCC2(CCN(CC3CCC5(CC3)CCN(c3ccc([C@@H]6c7ccc(O)cc7CC[C@@H]6c6ccccc6)cc3)CC5)CC2)O4)C(=O)N1 (some centres unmarked) [A39]	–	-27%	–	6%	-16%	11%	41 nM	30 nM
O=C1CCC(N2Cc3cc4c(cc3C2=O)OC2(CC4)CCN(CC3CCC4(CC3)CCN(c3ccc([C@@H]5c6ccc(O)cc6CC[C@@H]5c5ccccc5)cc3)CC4)CC2)C(=O)N1 (some centres unmarked) [A40]	–	35%	–	25%	15%	6%	13 nM	76 nM
O=C1CCC(N2C(=O)c3cc4c(cc3C2=O)C2(CCN(CC3CCN(c5ccc(C6c7ccc(O)cc7CCC6c6ccccc6)cc5)C3)CC2)CO4)C(=O)N1 (centres unmarked) [B1]	38 nM	-35%	–	-15%	–	–	–	–
